Results: patent US20010031751A1, “Pharmaceuticals” (SmithKline Beecham p.l.c., priority 1997, published 2001)

Tests used:
5-HT4 receptor = molecular target: T1, 5-HT4 receptor (Cavia porcellus, UniProt O70528); test: 5-HT4 receptor antagonist activity: 5-HT-evoked contractions of guinea-pig distal colon longitudinal muscle-myenteric plexus (LMMP) preparations; conditions: mean ± SEM, n=7, antagonism of 5-HT dose response curve, 45 minutes incubation
T1 construct: Longitudinal muscle-myenteric plexus (LMMP) preparations, 2-3cm long, are obtained from the distal colon region; from tissue; host or cells: guinea-pig distal colon longitudinal muscle-myenteric plexus
T1 sequence (O70528 whole entry): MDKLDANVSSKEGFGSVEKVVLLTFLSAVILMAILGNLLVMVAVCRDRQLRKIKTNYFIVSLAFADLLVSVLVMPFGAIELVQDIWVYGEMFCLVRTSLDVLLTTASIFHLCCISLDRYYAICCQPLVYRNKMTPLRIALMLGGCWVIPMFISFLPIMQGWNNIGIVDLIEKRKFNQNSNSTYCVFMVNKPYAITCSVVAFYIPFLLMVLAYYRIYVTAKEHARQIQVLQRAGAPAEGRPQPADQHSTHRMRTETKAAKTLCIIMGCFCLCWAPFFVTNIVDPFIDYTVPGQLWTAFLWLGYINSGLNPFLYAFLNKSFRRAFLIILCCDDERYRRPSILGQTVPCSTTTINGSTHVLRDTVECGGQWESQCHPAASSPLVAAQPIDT
Description: 5-HT4 RECEPTOR ANTAGONIST ACTIVITY
Male Dunkin Hartley guinea-pigs, weighing 200-300 g are used. Longitudinal muscle-myenteric plexus (LMMP) preparations, 2-3cm long, are obtained from the distal colon region. These are suspended under a 0.5 g load in isolated tissue baths containing Krebs Henseleit solution (NaCl 118 mM, KCl 4.7mM KH2PO4 1.2mM MgSO4 7H2O 1.2mM, Glucose 11.1mM, NaHCO3 25mM, CaCl2 6H2O 2.5mM) bubbled with 5% CO2 in O2, maintained at 37° C. and containing 1uM Granisetron and 0.1uM Methiothepin to block 5HT3 and 5HT1-like receptors respectively. 100uM Pargyline is also added to the tissues at the start of the experiment. Tissues are left for 15 minutes to equilibrate and then exposed to 5-HT at 0.1uM every 15 minutes until a uniform response is achieved. Following a half hour period for tissues to stabilise, non-cumulative dose response curves to 5-HT are constructed in all tissues. When base-lines have returned to normal, test compounds are added in the reservoirs of the tissue set-ups and washed in to the tissues. Tissues are incubated with the antagonists for 45 minutes after which a second non-cumulative dose response curve to 5-HT is constructed.
To test for selectivity of action, compounds are tested for their ability to antagonise cholinergically-mediated contractions of the guinea-pig colon, evoked by the nicotinic receptor agonist. […]

[1] = tested on: DMPP-evoked contractions of the guinea-pig colon; test: Selectivity test: cholinergically-mediated contractions of guinea-pig colon evoked by the nicotinic receptor agonist DMPP; conditions: selectivity of action
Description: To test for selectivity of action, compounds are tested for their ability to antagonise cholinergically-mediated contractions of the guinea-pig colon, evoked by the nicotinic receptor agonist. DMPP (1,1-dimethyl-4-phenyl-piperazinium iodide). For these experiments, tissues and equipment are set up as for the above, 5HT4 receptor experiments. After sensitization, non-cumulative dose response curves are constructed to DMPP. Test compounds are incubated with the tissues as above, and a second dose response curve to DMPP created. Results are given as mean pKB± SEM values for each antagonists.

In the case of CCCCN1CCC(CNC(=O)c2c3n(c4ccccc24)C(O)CCO3)CC1 (racemic) [compound of formula (I), (±)-N-[(1-butyl-4-piperidinyl)methyl]-3,4-dihydro-4-hydroxy-2H-[1,3]oxazino[3,2-a]indole-10-carboxamide], the Kb (5-HT4 receptor) is reported as 3.39 nM and the “effect on DMPP-evoked contractions” value [1] is reported as “did not significantly affect DMPP-evoked contractions”.
